# Data published in the supplement of paper PMC6206229.
# Tests used:
# [1] = system: Staphylococcus aureus ATCC 29213 (MSSA); test: minimum inhibitory concentration; extreme values may be limits of the assay
# Method in brief: (§1)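 Methicillin-susceptible and methicillin-resistant Staphylococcus aureus were assessed by broth microdilution with a resazurin read-out, compounds spanning 0 to 100 µM and incubated for 24 h at 37°C before 30 µl of 0.015% resazurin was added for 2–4 h. For the minimum inhibitory concentration, the lowest concentration whose well stayed blue rather than pink was recorded.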
# [2] = system: Staphylococcus aureus ATCC 700699 (MRSA); test: as above
# Method in brief: as §1
SMILES,minimum inhibitory concentration [1] [µM],minimum inhibitory concentration [2] [µM]
COc1ccc(-c2cnc3ccc(N4CCCC4)nn23)cc1OC,> 50,> 50
CCCCCCCCCCCCCCCCOP(=O)([O-])OCC[N+](C)(C)C,> 50,> 50
O=C(Nc1nnc(S)s1)c1cc(Br)ccc1Cl,> 50,> 50
CCCCc1ccc(NC(=O)Nc2ccc(O[C@H]3CCCC[C@@H]3N(C)c3ccccc3)c(F)c2)cc1,> 50,> 50
O=C(c1ccc(NCCO)cc1)C1C[C@H]1c1ccc(Cl)cc1 (stereo partly specified),> 50,> 50
Cc1cc(Nc2ccncc2)n2nc(C)c(-c3ccccc3Cl)c2n1,> 50,> 50
O=C(Nc1nc(-c2ccccn2)cs1)c1cncn1-c1ccccc1,> 50,> 50
COc1ccc(C2CC(c3cccs3)=NN2C(=O)c2ccco2)cc1OC (stereo unspecified),> 50,> 50
CNC(=O)c1nn(C)c2c1C(C)(C)Cc1cnc(Nc3ccc(N4CCN(C)CC4)cc3)nc1-2,> 50,> 50
CCCn1c(NC(=O)c2ccc3ccccc3n2)nc2ccccc21,> 50,> 50
Cc1nn2c(=O)c3c([nH]c2c1-c1ccc(Cl)cc1)CCCC3,> 50,> 50
CC(C)(C)CN1C(=O)C(c2ccccc2)(c2ccccc2)N=C1N,> 50,> 50
COC(=O)c1ccc(F)cc1NS(=O)(=O)c1cccc(-c2cnn(Cc3ccccc3)c2)c1,> 50,> 50
CC(=O)OCC1OC([S-])C(OC(C)=O)C(OC(C)=O)C1OC(C)=O.CCP(CC)CC.[Au+] (stereo unspecified),0.39,0.78
CCc1ccc(C(NCc2nc(N)nc(N(C)C)n2)C(C)C)cc1 (stereo unspecified),> 50,> 50
Nc1ncc(-c2ccc(C(F)(F)F)nc2)cc1-c1ccc(C(F)(F)F)nc1,> 50,> 50
COc1cc(C(F)(F)F)nc2ccc(C)c(N)c12,> 50,> 50
CC(=O)Nc1ccc(-c2noc(CC3CCCN(Cc4cccc(F)c4C)C3)n2)cc1 (stereo unspecified),> 50,> 50
FC(F)(F)c1ccc(N(c2cccnc2)C2CCN(c3ccc(C(F)(F)F)cn3)CC2)cc1,> 50,> 50
Cn1ncc2c(N3CCOCC3)nc(NCCc3c[nH]c4ccccc34)nc21,> 50,> 50
Clc1ccc(Cl)c(CO[C@H]2CCCC[C@@H]2n2ccnc2)c1,> 50,> 50
CN1CCN(S(=O)(=O)c2ccc(-c3ccc4c(Nc5ccc6nn[nH]c6c5)ccnc4c3)cc2)CC1,> 50,> 50
N=C(N)c1ccc(-c2cc(-c3ccccc3)on2)cc1,> 50,> 50

SMILES,minimum inhibitory concentration [1] [µM],minimum inhibitory concentration [2] [µM]
C[C@@H]1[C@H](O)[C@@H](C)/C=C/C=C/C=C/C=C/C=C/C=C/C=C/[C@H](O[C@@H]2O[C@H](C)[C@@H](O)[C@H](N)[C@@H]2O)C[C@@H]2O[C@](O)(C[C@@H](O)C[C@@H](O)[C@H](O)CC[C@@H](O)C[C@@H](O)CC(=O)O[C@H]1C)C[C@H](O)[C@H]2C(=O)O,50,50
Cc1noc(C)c1C(=O)N1CCCC(c2[nH]c3c(C)cccc3c2-c2ccncc2)C1 (stereo unspecified),> 50,> 50
CC(C)(C)OC(=O)N1CCN(c2nccc(-c3ccc(-c4ccc(Cl)cc4)s3)n2)CC1,> 50,> 50
c1ccc(Oc2ccc(-c3cncc(-c4ccc5[nH]ccc5c4)n3)cc2)cc1,> 50,> 50
COCC(C)NC(=O)CSc1ncnc2sc(-c3ccccc3)cc12 (stereo unspecified),> 50,> 50
CCNC(=O)C(C)Nc1nc(-c2cccnc2)nc2sc(C)c(C)c12 (stereo unspecified),> 50,> 50
COc1ccc(-c2nc(-c3cccc(NC(=O)Cc4ccc(F)cc4)c3)no2)cc1OC,> 50,> 50
Cc1cccc(NC(=O)c2cc(S(=O)(=O)N(C)c3ccc(F)cc3)ccc2Cl)n1,> 50,> 50
CNC1C(OC2C(OC3C(O)C(O)C(N=C(N)N)C(O)C3N=C(N)N)OC(C)C2(O)C=O)OC(CO)C(O)C1O (stereo unspecified),> 50,> 50
COc1cc(C2=NCCN2)ccc1-n1cc(-c2cccc(C3=NCCN3)c2)nn1,> 50,> 50
COc1cc(NC(=O)Cc2nn(C)c(=O)c3ccccc23)ccc1Cl,> 50,> 50
C[C@H]1c2cccc(O)c2C(=O)C2=C(O)[C@]3(O)C(=O)C(C(N)=O)=C(O)[C@@H](N(C)C)[C@@H]3[C@@H](O)[C@@H]21,0.781,25
Cc1nnc(NCc2cccc(Cl)c2)c2ccccc12,> 50,> 50
COC(=O)Nc1nc2cc(C(=O)c3ccccc3)ccc2[nH]1,> 50,> 50
CN1CCCN(C(c2ccccc2)c2ccc(Cl)cc2)CC1 (stereo unspecified),> 50,> 50
CCC(NC(=O)c1ccccc1NC(=O)c1ccc(C)cc1)C(=O)OC (stereo unspecified),> 50,> 50
COc1ccc(-c2cnc3ccc(NCc4ccc(S(N)(=O)=O)cc4)nn23)cn1,> 50,> 50
c1csc(-c2cnc3sc(NCC4CCOCC4)nn23)c1,> 50,> 50
O=C(Nc1ccc(F)c(-c2nc3cc(-c4ccccc4)cnc3[nH]2)c1)N1CCCC1,> 50,> 50
Cc1noc(C)c1COc1cccc(C(=O)N=c2[nH]cccc2C)c1,> 50,> 50
O=C(NCc1ccco1)N1CCN(Cc2ccc(Cl)s2)CC1,> 50,> 50
CC(C)n1nc(-c2cc3c(Cl)cccc3[nH]2)c2c(N)ncnc21,> 50,> 50
Cc1cc(C(=O)Nc2ccc(-c3ccccc3)cc2)no1,> 50,> 50

SMILES,minimum inhibitory concentration [1] [µM],minimum inhibitory concentration [2] [µM]
CCc1ccccc1-n1c(C)cn2c3c(=O)n(C(C(=O)OC)C(C)C)c(=O)n(C)c3nc12 (stereo unspecified),> 50,> 50
Clc1ccc(CCNc2cc(-c3ccccc3)nc3ncnn23)cc1,> 50,> 50
Cc1cc(C)cc(COc2ccc3c(C)c(CCC(=O)O)c(=O)oc3c2C)c1,> 50,> 50
CCCNC(=O)N1CCC2(CC1)CC(=O)c1cc(C)ccc1O2,> 50,> 50
Cc1cc(C)nc(-n2nc(C)cc2Nc2ccccc2)n1,> 50,> 50
Nc1ncc(-c2cn[nH]c2)cc1-c1nc2cc(Cl)cnc2[nH]1,> 50,> 50
CCCn1nnc(NC(=O)COc2ccc(C3CCCCC3)cc2)n1,> 50,> 50
CC(C)n1ncc2c(C(=O)NCC(c3cccs3)N3CCOCC3)cc(-c3ccccc3)nc21 (stereo unspecified),> 50,> 50
COc1cncc(-c2cncc(N3CCN(c4ccncc4)CC3)n2)c1,> 50,> 50
Cc1cccc(C(=O)Nc2ccnc(N(C)C3CCN(CC(C)C)CC3)c2)c1,> 50,> 50
COc1ccc2nc(C)cc(OCC(=O)NCc3ccccc3)c2c1,> 50,> 50
Cc1ccc2[nH]c3c(NCCN(C)C)ncnc3c2c1,> 50,> 50
Cc1ccc(S(=O)(=O)n2cc(-c3ccnc(N)c3)c3cc(Br)cnc32)cc1,> 50,> 50
CCC(C)NC(=O)c1ccc(NC(=O)C2(c3ccccc3)CCCC2)cc1 (stereo unspecified),> 50,> 50
CC[C@@H](CO)NCCN[C@@H](CC)CO,> 50,> 50
CC1=Nc2ccc(Cl)cc2C(O)(c2ccc(C)cc2)N1CCN1CCCCC1 (stereo unspecified),> 50,> 50
O=C(c1ccc(F)cc1)N(CCNc1ccccc1)c1ccccc1,> 50,> 50
NC(=O)c1cc(-c2ccsc2)ccc1OCCOc1ccccc1,> 50,> 50
Nc1c2c(nc3sc4c(c13)CCCC4)CCCC2,> 50,> 50
CC(=O)N1CCN(c2ccc(Oc3ccc(Cl)cc3O)cc2)CC1,> 50,> 50
Nc1ncnc2[nH]nc(Cc3cccc4ccccc34)c12,> 50,> 50
CN1CCN(c2nccc3nc(-c4ccc(F)c(F)c4)[nH]c23)CC1,> 50,> 50
